Experimental data from patent publication US12594349B2, “Compositions and methods for the targeting of PCSK9” (Scribe Therapeutics Inc., priority 2022, dated 2026).

Assays:
PCSK9 locus = test: RNA-seq, normalized PCSK9 read counts in transfected Huh7 cells; format: cell-based, human; settings: Huh7, mRNA + gRNA scaffold 316 v1, 6 and 26 days post-transfection
From the text: (§1) Seeded Huh7 cells were transfected with mRNA encoding a catalytically-active CasX 676, dXR1, or LTRP5-ADD-ZIM3 and a gRNA with scaffold 316 and a spacer targeting the PCSK9 locus. Cells were harvested at 6 and 26 days post-transfection and subsequently lysed and stored in DNA/RNA Shield (Zymo Research). As an additional control, untreated, naïve cells were also harvested. The collected samples were subjected to gDNA/RNA extraction using the Quick-DNA/RNA Miniprep Plus kit (Zymo Research). RNA samples were used for total RNA sequencing (RNA-seq), which was performed by a third-party. Raw FASTQ files were received and processed with FASTQC, and adapters were trimmed using Trim Galore. Transcript expression was then quantified against the hg38 genome using Salmon to generate normalized counts for each gene (transcripts per million, or TPM). Differential expression analysis was performed using DESeq2. Genes with fewer than 10 counts in all samples were omitted from analysis, and all pairwise comparisons (e.g., differential gene expression analyses between untreated and treated conditions at the two individual timepoints) were done with significance thresholds of |log 2FC|>2 and adjusted p-value<0.001.

Huh7 cells = test: RNA-seq, differentially regulated off-target genes in transfected Huh7 cells; format: cell-based, human; settings: Huh7, 6 and 26 days post-transfection, |log2FC|>2 and adjusted p-value<0.001
From the text: as §1

human PCSK9 locus = test: Secreted PCSK9 by ELISA in Huh7 cells transfected with mRNA and gRNA; format: cell-based; settings: Huh7 cells; for Secreted PCSK9: 6 days post-transfection, normalized to total cell count; for Percent reduction in PCSK9 secretion / Average percent reduction in PCSK9 secretion: LTRP5-ADD-ZIM3 mRNA; for Percent reduction in PCSK9 secretion: day 6, relative to non-targeting gRNA control; for Average percent reduction in PCSK9 secretion: day 6, averaged from the two doses
Outline: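 Huh7 (also HepG2, Hep3B) cells were transfected with mRNA for CasX 676, dXR1 or LTRP5-ADD-ZIM3 plus scaffold 316 gRNA targeting PCSK9 or B2M; one screen used 50:25 or 25:12.5 ng mRNA:gRNA. Supernatant PCSK9 was measured by ELISA at 4–87 days post-transfection and normalized to cell count.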

mouse PCSK9 locus = test: Intracellular PCSK9 staining by flow cytometry in Hepa1-6 cells lipofected with mRNA and gRNA; format: cell-based; settings: Hepa1-6, dXR1 mRNA, day 6
Procedure: Seeded Hepa1-6 cells treated with the NATE™ inhibitor were lipofected with 300 ng of mRNA encoding dXR1 or LTRP1-ZIM3 (Table 12) and 150 ng of a PCSK9-targeting gRNA (Table 14). Seven different gRNAs spanning the promoter region of the mouse PCSK9 locus were tested, in addition to a non-targeting sequence complementary to the human PCSK9 gene (Table 14). Cells were harvested at 6, 13, and 25 days after transfection to measure intracellular levels of the PCSK9 protein using an intracellular flow cytometry staining protocol. […]
Seeded Hepa1-6 cells treated with the NATE™ inhibitor were lipofected with 300 ng of mRNA encoding LTRP1-ZIM3, LTRP5-ZIM3, catalytically-active CasX 491, or dCas9-ZNF10-DNMT3A/3L, and 150 ng of PCSK9-targeting gRNA (Table 14). Intracellular levels of PCSK9 protein were measured at 7, 14, 21, 36, and 71 days post-transfection using an intracellular staining protocol as described earlier for experiment #1.
Transfection of mRNA and gRNA into Hepa1-6 cells and intracellular PCSK9 staining were performed as described in Example 2. […] Intracellular levels of PCSK9 protein were measured at various timepoints, up to day 53 post-transfection using an intracellular staining protocol as described earlier in Example 2. […]

[1] = LTRP5-ADD-ZIM3 mRNA + gRNA scaffold 316, 25 ng mRNA:12.5 ng gRNA
[2] = LTRP5-ADD-ZIM3 mRNA + gRNA scaffold 316, 50 ng mRNA:25 ng gRNA

Row | Molecule | PCSK9 expression by RNA-seq (PCSK9 locus) | differentially regulated off-target genes (Huh7 cells) | Secreted PCSK9 (human PCSK9 locus; [1]) [ng/mL] | Secreted PCSK9 (human PCSK9 locus; [2]) [ng/mL] | Percent reduction in PCSK9 secretion (human PCSK9 locus; 25 ng mRNA:12.5 ng gRNA) [%] | Percent reduction in PCSK9 secretion (human PCSK9 locus; 50 ng mRNA:25 ng gRNA) [%] | Average percent reduction in PCSK9 secretion (human PCSK9 locus) [%] | degree of repression with dXR1 mRNA compared with LTRP1-ZIM3 mRNA (mouse PCSK9 locus)
1 | TG-06-133 (guide AUGGUAGGCACAAGCUCAGC; listed as RNA, chemistry not given here) | durably repress PCSK9 expression | lowest number of differentially regulated off-target genes | 42.13 | 29.45 | 40.86 | 64.21 | 52.53 | 
2 | TG-06-154 (guide AGGGUGUGGGUGCUUGACGC; listed as RNA, chemistry not given here) | durably repress PCSK9 expression | higher number of differentially regulated off-target genes | 24.48 | 6.87 | 65.64 | 91.65 | 78.64 | 
3 | TG-06-167 (guide CACUGAAUAGCGCAGCCGCA; listed as RNA, chemistry not given here) | durably repress PCSK9 expression | higher number of differentially regulated off-target genes | 66.61 | 39.55 | 6.51 | 51.93 | 29.22 | 
4 | 27.100 (nucleic acid, as printed in the source, key not given here) guide: ACUUUGAGAGCCAUCACCAGCGACUAUGUCGUAGUGGGUAAAGCUCCCUCUUCGGAGGGAGCAUCAAAGCUCUCUCUUUCUGAGGCmU*mA*mG |  |  |  |  |  |  |  | less substantial
